Measurements reported in US12653805B2, “Targeting LASP1, eIF4A1, eIF4B and CXC4 with modulators and combinations thereof for cancer therapy” (The University of Toledo, priority 2019, dated 2026).

Key:
[1] = biological target: T1, eIF4A1 (Homo sapiens, UniProt P60842); format: cell-based
T1 construct: A GQ-5′-UTR dual reporter was created in breast cancer cell lines; endogenous in cells
Excerpt: A GQ-5′-UTR dual reporter was created in breast cancer cell lines which would report either a reduction in td-Tomato fluorescence or luciferase activity if eIF4A1 is inhibited by any of the compounds in the Prestwick library (FIGS. 26A-26B).

[2] = tested on: triple-negative SUM-159-PT cells; experiment: Immunoblotting after digoxin in SUM-159-PT cells; format: cell-based, human; conditions: 30 nM digoxin (low dose)
[3] = tested on: triple-negative MDA-MB-231 cells; experiment: Immunoblotting after digoxin in MDA-MB-231 cells; format: cell-based, human
[4] = tested on: MCF7 breast cancer cells; conditions: RNA-Seq data, p 4.3E−10, adjusted p 8.5E−7; cited from earlier work
[5] = tested on: 231S LASP1 NS and KD cells; experiment: Pharmacological inhibition of eIF4A in 231S LASP1 NS and KD cells; format: cell-based, human
Method: 231S LASP1 NS/KD cells were plated into 96-well dishes (3,000 cells/well) and incubated with various amounts of rocaglamide A (RocA) (Sigma/Aldrich, St. Louis, Mo., Cat. No. SML0656) in low serum media (LSM-DMEM/0.5% FBS). Images were acquired via an IncuCyte R S3 Live-Cell Analysis System (Essen BioScience, Ann Arbor, Mich.). Two images per well were acquired every 2 h. Data was processed on the IncuCyte S3 software (Essen BioScience, Ann Arbor, Mich.). Only cells with an area >150 μm^2 were analyzed to avoid cellular debris. Data is reflective of the percent confluence of each image at 36 h RocA incubation. Percent inhibition was calculated in reference to the DMSO control. The readings from 231S LASP1 NS cells were set to 1. In the cell viability experiments, 231S LASP1 NS/KD cells were seeded at 6,000 cells/well and allowed to attach and spread overnight. The following day, complete media was replaced with LSM and RocA. Cell viability was then determined 36 h later using a cell counting kit-8 (Sigma/Aldrich, St. Louis, Mo., Cat. No 96992) according to the manufacturer's instructions. Data is reflective of the absorbance at 450 nm (A450). The DMSO controls were set to 100%.

[6] = tested on: SUM-159PT cells; experiment: Viability of parental and paclitaxel-resistant SUM-159PT cells after RocA; format: cell-based, human; conditions: therapy naïve and paclitaxel-resistant (Pac 200) cells, 48 h, adherent and non-adherent conditions
Method: (§1) Briefly, to assess the cell viability, 3×10^3 cells/well (SUM-159PT, SUM Pac 200 nM, MDA-Bone-Un eIF4A CC and KO) were seeded and the cells were allowed to attach and spread overnight under adherent or non-adherent low attachment conditions.

[7] = tested on: MDA-Bone-Un eIF4A CC and KO cells; experiment: Viability of MDA-Bone-Un eIF4A CRISPR control and knockout cells after RocA; format: cell-based, human; conditions: 48 h
Method: as §1

[8] = tested on: BCSCs derived from MDA-Bone-Un cells; experiment: DRAQ7 cell death assay in BCSCs from MDA-Bone-Un; format: cell-based, human; conditions: 30 nM RocA, 7 days
Method: (§2) The induction of cell death by the small molecule inhibitor rocaglamide A (RocA) (Sigma/Aldrich, St. Louis, Mo., Cat. #—SML0656) was followed by employing Deep Red Anthraquinone 7 (DRAQ7) dye (Abcam, Cat. #—ab109202). DRAQ7 is a cell impermeable, far-red fluorescent DNA dye that stains the nuclei of dead and plasma membrane-compromised cells. […] For the cell death analysis, ALDH+ BCSCs were treated with the indicated drug dosage for 7 days. On day 7, DRAQ7 was added to the cells (1:2,000 dilution) and incubated overnight. Dead BCSCs were tracked by DRAQ7 fluorescence by employing the EVOS cell imaging system (ThermoFisher Scientific, Rockford, Ill.).

[9] = tested on: BCSCs derived from MDA-Bone-Un cells; experiment: CellTiter-Glo viability assay in BCSCs from MDA-Bone-Un; format: cell-based, human; conditions: 7 days
Excerpt: (§3) The cell viability was alternatively determined on day 7 following treatment with RocA by employing the CellTiter-Glo® luminescent cell viability kit (Promega, Cat. #—G7570) as per the manufacturer's instructions. This quantitative assay is a homogeneous method of determining the number of viable cells in culture based on the amount of adenosine triphosphate (ATP) present inside the cells.

[10] = tested on: BCSCs derived from MDA-Bone-Un cells; experiment: Mammosphere formation efficiency (MFE) assay, BCSCs from MDA-Bone-Un; format: cell-based, human; conditions: 10 nM RocA, p<0.0001
Method: (§4) The evaluation of MFE was performed as described previously. Briefly, 1×10^3 ALDH+ BCSCs of MDA-Bone-Un or SUM-159PT origins were seeded onto 96-well ultra-low attachment plates. They were maintained in DMEM/F12 media supplemented with […] bFGF, […] hEGF, 2% B27 mixture, and 1% penicillin/streptomycin for 7 days. The mammosphere images were obtained longitudinally by employing IncuCyte® S3 Live-Cell Analysis System (Essen BioScience, Ann Arbor, Mich.). On day 7, MFE was calculated by employing the formula: (number of mammospheres formed/total number of cells seeded)×100. A diameter of 100 μm was used as a cut-off in the determination of the mammosphere forming ability. For the assessment of secondary MFE, the BCSCs from primary MFE were collected, centrifuged, and re-seeded onto 96-well plates coated with poly 2-hydroxyethyl methacrylate (poly-HEMA). The cells were monitored, and the mammospheres were counted using IncuCyte.

[11] = tested on: BCSCs derived from SUM-159PT cells; experiment: DRAQ7 cell death assay in BCSCs from SUM-159PT; format: cell-based, human; conditions: 5 nM RocA, day 7
Method: as §2

[12] = tested on: BCSCs derived from SUM-159PT cells; experiment: CellTiter-Glo viability assay in BCSCs from SUM-159PT; format: cell-based, human; conditions: 5 nM RocA
Excerpt: as §3

[13] = tested on: BCSCs derived from SUM-159PT cells; experiment: Mammosphere formation efficiency (MFE) assay, BCSCs from SUM-159PT; format: cell-based, human
Method: as §4

[14] = tested on: BCSCs derived from MDA-Bone-Un cells; experiment: Immunoblotting of RocA-treated BCSCs from MDA-Bone-Un; format: cell-based, human
[15] = 45 nM RocA, 72 h, pooled replicates

T1 sequence (P60842 whole entry): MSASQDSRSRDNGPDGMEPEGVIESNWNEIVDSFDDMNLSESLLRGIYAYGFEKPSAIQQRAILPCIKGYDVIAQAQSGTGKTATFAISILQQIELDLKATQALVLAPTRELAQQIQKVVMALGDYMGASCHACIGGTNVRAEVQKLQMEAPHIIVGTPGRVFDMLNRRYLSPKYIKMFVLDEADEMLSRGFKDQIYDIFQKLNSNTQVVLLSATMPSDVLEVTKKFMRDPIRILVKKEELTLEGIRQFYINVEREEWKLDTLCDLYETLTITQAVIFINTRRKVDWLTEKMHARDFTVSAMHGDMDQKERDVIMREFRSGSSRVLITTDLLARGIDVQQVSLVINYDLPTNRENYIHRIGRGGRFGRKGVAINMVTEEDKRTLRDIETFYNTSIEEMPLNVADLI

C[C@H]1O[C@@H](O[C@H]2[C@@H](O)C[C@H](O[C@H]3[C@@H](O)C[C@H](O[C@H]4CC[C@@]5(C)[C@H](CC[C@@H]6[C@@H]5C[C@@H](O)[C@]5(C)[C@@H](C7=CC(=O)OC7)CC[C@]65O)C4)O[C@@H]3C)O[C@@H]2C)C[C@H](O)[C@@H]1O [digoxin]
activity of eIF4A1 ([1]; 3 different TNBC cell lines): potently inhibited | Z-score ([1]; Prestwick chemical library screen): below −5 | downregulation (reduction) of c-MYC [2]: 60% | downregulation of the levels of eIF4A1 [2]: 50% | downstream effectors of eIF4A1 activity BIRC5 (survivin) and Rho Kinase 1 (ROCK1) [3]: dose-dependent inhibition | C-Myc mRNA level [4]: decrease

COc1ccc([C@@]23Oc4cc(OC)cc(OC)c4[C@]2(O)[C@H](O)[C@H](C(=O)N(C)C)[C@H]3c2ccccc2)cc1 [rocaglamide A]
cellular viability ([5]; 231S LASP1 KD cells, RocA 36 h, cell counting kit-8): significantly decreased | BIRC5 levels ([5]; 231S LASP1 NS cells, 24 h RocA, 30 to 100 nM): dose-dependent decrease | proliferation ([5]; MDA-MB-231 cells with stable knockdown of LASP1 combined with rocaglamide A): effectively inhibited | targeting of cell viability [6]: effective | viability following RocA challenge ([7]; MDA-Bone-Un eIF4A CC cells): steep decrease in viability | sensitivity of viability to RocA ([7]; MDA-Bone-Un eIF4A KO cells, up to 60 nM RocA): relatively insensitive | DRAQ7 staining (dead BCSCs) [8]: intense DRAQ7 staining | viability based on ATP level ([9]; 30 nM RocA): nearly all BCSCs were wiped out | IC50 ([9]; cellular ATP, read-out: half maximal inhibitory concentration (IC50)): 15 nM | reduction of the primary mammospheres [10]: ~50% | secondary MFE [10]: severely impacted | BCSCs intensely stained with DRAQ7 [11]: More than 50% | cells dead [12]: More than 50% | reduction in formation of the primary mammospheres ([13]; 10 nM RocA): 50% | decrease in secondary MFE ([13]; RocA, compared with primary MFE): more drastic | reduction in NANOG level ([14]; 15 nM RocA, 48 h): 2 fold | reduction of ABC transporter ABCB1 ([14]; 45 nM RocA, 48 and 72 h, pooled replicates): 10 fold | decrease of SOX2 level ([14]; 45 nM RocA, 24 h, pooled replicates): 10 fold | reduction in NANOG level ([14]; 45 nM RocA, 48 h): 10 fold | reduction of OCT4 ([14]; 45 nM RocA, 48 h (dose experiment)): 3.3 fold | decrease of OCT4 ([14]; 45 nM RocA, 48 h, 3 biological replicates pooled): 2.5 fold | SOX2 level increased back ([14]; 45 nM RocA, 48 h, pooled replicates): 2 fold | SOX2 [14, 15]: degradation of SOX2 was observed | decrease of OCT4 [14, 15]: 10 fold | expression of BIRC5, Cyclin D1, Cyclin D3, and ROCK1 ([14]; 15, 30, and 45 nM RocA, 48 h): dramatic reduction | total protein level of eIF4A ([14]; 15, 30, and 45 nM RocA, 48 h): did not affect | induction of cleaved caspase-3 (increase) ([14]; RocA 15-45 nM, 48 h): up to 17.1 fold | levels of the BCSC markers ALDH1A1 and CD44 ([14]; RocA, 48 h): not affected | SOX2 level ([14]; all concentrations of RocA, 48 h): remained elevated above the basal level
